Patent US10039764B2, “Treatment and diagnosis of cancer and precancerous conditions using PDE10A inhibitors and methods to measure PDE10A expression” (University of South Alabama, priority 2013, dated 2018)
Where two headings read alike, the source gives them in different places.

Assays:
[1] = biological target: T1, PDE3A (Homo sapiens, UniProt Q14432); experiment: IMAP fluorescence polarization PDE assay, PDE3A; format: biochemical
T1 construct: purchased BPS Biosciences
Procedure: (§1) MY5445 was purchased from EMD Millipore. […] Recombinant PDE enzymes were purchased from BPS Biosciences. DMSO was used as the vehicle for testing effects of all compounds.
(§2) PDE enzymatic activity was measured using IMAP fluorescence polarization assay (Molecular Devices. Inc.). […] For experiments involving cell extracts, 2×10^5 cells per well were plated on a six-well tissue culture plate 72 hours prior to cell lysis.
(§3) The effect of the inhibitors on the growth of human colon tumor and normal colonocytes was measured using the Cell Titer Glo Cell Viability Assay (Promega) as described above. The inhibitory potency toward purified recombinant phosphodiesterase enzymes was measured using the IMAP Phosphodiesterase Assay as described in the Materials and Methods section.

[2] = biological target: T2, PDE2A (Homo sapiens, UniProt O00408); experiment: IMAP fluorescence polarization PDE assay, PDE2A; format: biochemical
T2 construct: purchased BPS Biosciences
T2 sequence (O00408 whole entry): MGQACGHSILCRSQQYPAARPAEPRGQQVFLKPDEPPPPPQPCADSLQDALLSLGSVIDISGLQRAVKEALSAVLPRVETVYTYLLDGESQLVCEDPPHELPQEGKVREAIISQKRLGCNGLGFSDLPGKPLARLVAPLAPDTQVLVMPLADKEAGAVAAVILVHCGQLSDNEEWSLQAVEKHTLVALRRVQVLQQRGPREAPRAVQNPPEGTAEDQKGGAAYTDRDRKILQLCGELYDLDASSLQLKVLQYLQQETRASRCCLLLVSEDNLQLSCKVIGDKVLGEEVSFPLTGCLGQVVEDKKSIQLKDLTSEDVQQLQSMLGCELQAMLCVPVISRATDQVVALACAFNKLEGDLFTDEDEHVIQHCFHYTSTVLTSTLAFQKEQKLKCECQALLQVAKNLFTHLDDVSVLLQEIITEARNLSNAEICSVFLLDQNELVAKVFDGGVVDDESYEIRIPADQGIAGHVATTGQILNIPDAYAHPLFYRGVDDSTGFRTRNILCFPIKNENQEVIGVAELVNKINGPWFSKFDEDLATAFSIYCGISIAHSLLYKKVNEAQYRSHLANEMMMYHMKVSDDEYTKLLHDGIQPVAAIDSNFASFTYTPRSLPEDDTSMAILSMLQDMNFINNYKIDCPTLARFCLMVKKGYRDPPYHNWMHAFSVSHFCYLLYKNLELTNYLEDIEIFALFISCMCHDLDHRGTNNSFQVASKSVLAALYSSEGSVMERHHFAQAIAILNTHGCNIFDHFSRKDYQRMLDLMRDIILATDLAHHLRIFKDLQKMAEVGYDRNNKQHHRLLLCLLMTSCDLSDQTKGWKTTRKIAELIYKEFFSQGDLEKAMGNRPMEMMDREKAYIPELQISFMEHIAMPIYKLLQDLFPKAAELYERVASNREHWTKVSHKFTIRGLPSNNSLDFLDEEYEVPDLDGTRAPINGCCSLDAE
Procedure: as §1, §2, §3

[3] = biological target: T3, PDE9A (Homo sapiens, UniProt O76083); experiment: IMAP fluorescence polarization PDE assay, PDE9A; format: biochemical; conditions: substrate cGMP; read-out: Phosphodiesterase Inhibition PDE9A cGMP IC50
T3 construct: purchased BPS Biosciences
Procedure: as §1, §2, §3

[4] = biological target: T4, PDE10A (Homo sapiens, UniProt Q9Y233); experiment: IMAP fluorescence polarization PDE assay, PDE10A; format: biochemical; conditions: recombinant enzyme
T4 construct: other: substrate cGMP; recombinant enzyme; other: substrate cAMP
T4 sequence (Q9Y233 290-1055 limits assumed): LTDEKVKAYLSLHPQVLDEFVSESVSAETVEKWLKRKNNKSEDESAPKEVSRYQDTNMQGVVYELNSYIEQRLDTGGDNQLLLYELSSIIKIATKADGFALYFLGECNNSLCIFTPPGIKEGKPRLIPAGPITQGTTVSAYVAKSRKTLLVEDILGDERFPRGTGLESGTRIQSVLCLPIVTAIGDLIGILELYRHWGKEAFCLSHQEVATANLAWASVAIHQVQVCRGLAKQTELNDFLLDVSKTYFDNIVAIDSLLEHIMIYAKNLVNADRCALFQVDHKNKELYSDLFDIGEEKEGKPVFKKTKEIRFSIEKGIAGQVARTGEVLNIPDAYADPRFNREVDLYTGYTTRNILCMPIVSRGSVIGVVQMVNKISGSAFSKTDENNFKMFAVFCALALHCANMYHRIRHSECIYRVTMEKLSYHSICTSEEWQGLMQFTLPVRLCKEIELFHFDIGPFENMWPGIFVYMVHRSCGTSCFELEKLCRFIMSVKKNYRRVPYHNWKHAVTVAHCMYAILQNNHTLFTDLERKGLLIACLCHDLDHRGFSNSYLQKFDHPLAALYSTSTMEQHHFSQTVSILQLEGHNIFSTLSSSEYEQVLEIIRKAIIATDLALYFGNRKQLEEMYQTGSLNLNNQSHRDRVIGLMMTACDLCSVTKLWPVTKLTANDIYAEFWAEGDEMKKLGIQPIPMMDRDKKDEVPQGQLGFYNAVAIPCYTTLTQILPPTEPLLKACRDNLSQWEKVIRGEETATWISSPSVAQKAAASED
Procedure: as §1, §2, §3

[5] = tested on: HT29 human colon tumor cells; experiment: Growth assay (Cell Titer Glo), HT29; format: cell-based; conditions: Homo sapiens, HT-29
Text: (§4) All cell lines comprising the NCI-60 cancer cell panel were obtained from the NCI Developmental Therapeutics Program and maintained under the same standard conditions. The human normal colonocyte (NCM460) cell line was purchased from Incell (San Antonio, Tex.) and grown according to the manufacturer's specifications. The human colon adenoma cell line, LT97, was a gift from Dr. Brigitte Marian (Medical University Vienna, Austria) and grown according to the provider's specifications. Human mammary epithelial cells (HMEC) were purchased from Lonzo and grown using culture conditions as recommended by the supplier.
(§5) Ninety-six (96)-well microtiter plates were seeded at a density of 5,000 cells per well. For drug treatment, cells were treated with compounds or vehicle control, and incubated at 37° C. for 72 hours. For siRNA assays, cells were transfected with siRNA under the same conditions described above. The effect of treatment with inhibitors or siRNA knockdown of PDE10A on growth was measured using the Cell Titer Glo Assay (Promega), which measures viable cell number based on ATP content.
(§6) Effect of various PDE isozyme inhibitors on the growth of human colon tumor cells HCT116 and HT29 was determined using the Cell Titer Glo Cell Viability Assay (Promega) following 72 hours of treatment.
as §3

[6] = biological target: T5, PDE11A (Homo sapiens, UniProt Q9HCR9); experiment: IMAP fluorescence polarization PDE assay, PDE11A; format: biochemical
T5 construct: purchased BPS Biosciences
T5 sequence (Q9HCR9 whole entry): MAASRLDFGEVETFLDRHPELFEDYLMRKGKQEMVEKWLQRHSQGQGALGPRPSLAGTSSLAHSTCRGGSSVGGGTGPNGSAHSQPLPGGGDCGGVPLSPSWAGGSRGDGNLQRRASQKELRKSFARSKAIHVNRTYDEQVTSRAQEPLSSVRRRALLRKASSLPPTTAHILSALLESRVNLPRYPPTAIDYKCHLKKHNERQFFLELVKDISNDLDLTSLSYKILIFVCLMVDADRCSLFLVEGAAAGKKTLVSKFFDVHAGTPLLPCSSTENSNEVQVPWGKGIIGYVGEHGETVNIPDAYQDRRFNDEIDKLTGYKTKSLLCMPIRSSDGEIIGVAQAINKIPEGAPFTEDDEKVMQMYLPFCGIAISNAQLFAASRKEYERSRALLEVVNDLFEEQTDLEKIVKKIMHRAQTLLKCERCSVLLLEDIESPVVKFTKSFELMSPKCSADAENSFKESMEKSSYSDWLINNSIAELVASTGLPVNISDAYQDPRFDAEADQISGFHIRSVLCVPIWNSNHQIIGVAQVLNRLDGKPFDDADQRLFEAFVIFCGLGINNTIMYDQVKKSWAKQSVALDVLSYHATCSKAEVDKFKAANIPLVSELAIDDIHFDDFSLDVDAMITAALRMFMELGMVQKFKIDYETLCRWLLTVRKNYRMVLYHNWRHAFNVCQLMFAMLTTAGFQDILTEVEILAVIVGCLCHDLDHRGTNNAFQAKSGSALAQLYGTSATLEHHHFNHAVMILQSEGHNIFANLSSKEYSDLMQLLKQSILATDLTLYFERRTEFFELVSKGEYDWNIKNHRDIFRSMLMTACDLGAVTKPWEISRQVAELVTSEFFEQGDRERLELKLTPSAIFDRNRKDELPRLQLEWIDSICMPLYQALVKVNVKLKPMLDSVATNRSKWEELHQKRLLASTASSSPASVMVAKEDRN
Procedure: as §1, §2, §3

[7] = tested on: HCT116 human colon tumor cells; experiment: Growth assay (Cell Titer Glo), HCT116; format: cell-based; conditions: Homo sapiens, HCT-116
Text: as §4, §5, §6, §3

[8] = biological target: T6, PDE3B (Homo sapiens, UniProt Q13370); experiment: IMAP fluorescence polarization PDE assay, PDE3B; format: biochemical; conditions: substrate cGMP; read-out: Phosphodiesterase Inhibition PDE3B cGMP IC50
T6 construct: purchased BPS Biosciences
Procedure: as §1, §2, §3

[9] = tested on: SW480 human colon tumor cells; experiment: Growth assay (Cell Titer Glo), SW480; format: cell-based
Text: as §4, §5, §3

[10] = tested on: normal colonocytes (NCM460); experiment: Growth assay (Cell Titer Glo), normal colonocytes NCM460; format: cell-based, human; conditions: for IC50: Homo sapiens, NCM460
Text: as §4, §5, §3

[11] = biological target: T7, PDE1A (Homo sapiens, UniProt P54750); experiment: IMAP fluorescence polarization PDE assay, PDE1A; format: biochemical
T7 construct: purchased BPS Biosciences
T7 sequence (P54750 whole entry): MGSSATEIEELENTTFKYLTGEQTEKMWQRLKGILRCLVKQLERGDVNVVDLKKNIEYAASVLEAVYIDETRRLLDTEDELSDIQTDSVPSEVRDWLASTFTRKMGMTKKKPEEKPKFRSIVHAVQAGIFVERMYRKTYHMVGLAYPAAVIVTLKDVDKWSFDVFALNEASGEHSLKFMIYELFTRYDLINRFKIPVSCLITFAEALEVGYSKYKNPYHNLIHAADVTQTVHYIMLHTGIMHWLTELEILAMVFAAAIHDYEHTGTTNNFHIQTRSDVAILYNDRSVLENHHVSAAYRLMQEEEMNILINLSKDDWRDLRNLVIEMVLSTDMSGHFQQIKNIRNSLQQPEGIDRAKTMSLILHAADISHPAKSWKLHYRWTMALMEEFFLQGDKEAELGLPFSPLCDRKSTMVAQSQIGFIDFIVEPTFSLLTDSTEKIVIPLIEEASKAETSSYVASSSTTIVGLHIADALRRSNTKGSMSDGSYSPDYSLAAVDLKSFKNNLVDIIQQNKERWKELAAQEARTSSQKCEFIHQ
Procedure: as §1, §2, §3

[12] = biological target: T8, PDE4B (Homo sapiens, UniProt Q07343); experiment: IMAP fluorescence polarization PDE assay, PDE4B; format: biochemical; conditions: substrate cAMP; read-out: Phosphodiesterase Inhibition PDE4B cAMP IC50
T8 construct: purchased BPS Biosciences
T8 sequence (Q07343 whole entry): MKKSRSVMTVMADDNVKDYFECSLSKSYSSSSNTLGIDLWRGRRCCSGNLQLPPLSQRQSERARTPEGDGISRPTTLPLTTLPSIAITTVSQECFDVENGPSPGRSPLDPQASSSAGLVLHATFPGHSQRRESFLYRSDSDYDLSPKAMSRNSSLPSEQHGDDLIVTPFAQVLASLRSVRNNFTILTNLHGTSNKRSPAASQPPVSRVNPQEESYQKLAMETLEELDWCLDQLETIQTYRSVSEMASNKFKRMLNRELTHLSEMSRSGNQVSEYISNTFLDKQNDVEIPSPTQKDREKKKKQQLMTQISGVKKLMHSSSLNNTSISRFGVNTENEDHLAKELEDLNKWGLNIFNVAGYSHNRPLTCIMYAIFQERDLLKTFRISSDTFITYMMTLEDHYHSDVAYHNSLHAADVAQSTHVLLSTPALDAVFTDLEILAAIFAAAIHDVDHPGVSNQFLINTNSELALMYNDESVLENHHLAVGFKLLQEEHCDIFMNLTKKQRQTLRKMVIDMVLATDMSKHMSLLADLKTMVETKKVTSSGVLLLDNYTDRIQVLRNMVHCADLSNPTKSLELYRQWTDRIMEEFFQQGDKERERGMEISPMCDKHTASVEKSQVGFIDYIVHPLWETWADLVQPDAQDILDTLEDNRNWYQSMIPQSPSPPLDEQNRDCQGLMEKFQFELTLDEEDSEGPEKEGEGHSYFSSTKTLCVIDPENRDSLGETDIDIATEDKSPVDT
Procedure: as §1, §2, §3

[13] = biological target: T9, PDE5A (Homo sapiens, UniProt O76074); experiment: IMAP fluorescence polarization PDE assay, PDE5A; format: biochemical; conditions: substrate cGMP; read-out: Phosphodiesterase Inhibition PDE5A (PDE5) cGMP IC50
T9 construct: purchased BPS Biosciences
Procedure: as §1, §2, §3

T1 sequence (Q14432 whole entry): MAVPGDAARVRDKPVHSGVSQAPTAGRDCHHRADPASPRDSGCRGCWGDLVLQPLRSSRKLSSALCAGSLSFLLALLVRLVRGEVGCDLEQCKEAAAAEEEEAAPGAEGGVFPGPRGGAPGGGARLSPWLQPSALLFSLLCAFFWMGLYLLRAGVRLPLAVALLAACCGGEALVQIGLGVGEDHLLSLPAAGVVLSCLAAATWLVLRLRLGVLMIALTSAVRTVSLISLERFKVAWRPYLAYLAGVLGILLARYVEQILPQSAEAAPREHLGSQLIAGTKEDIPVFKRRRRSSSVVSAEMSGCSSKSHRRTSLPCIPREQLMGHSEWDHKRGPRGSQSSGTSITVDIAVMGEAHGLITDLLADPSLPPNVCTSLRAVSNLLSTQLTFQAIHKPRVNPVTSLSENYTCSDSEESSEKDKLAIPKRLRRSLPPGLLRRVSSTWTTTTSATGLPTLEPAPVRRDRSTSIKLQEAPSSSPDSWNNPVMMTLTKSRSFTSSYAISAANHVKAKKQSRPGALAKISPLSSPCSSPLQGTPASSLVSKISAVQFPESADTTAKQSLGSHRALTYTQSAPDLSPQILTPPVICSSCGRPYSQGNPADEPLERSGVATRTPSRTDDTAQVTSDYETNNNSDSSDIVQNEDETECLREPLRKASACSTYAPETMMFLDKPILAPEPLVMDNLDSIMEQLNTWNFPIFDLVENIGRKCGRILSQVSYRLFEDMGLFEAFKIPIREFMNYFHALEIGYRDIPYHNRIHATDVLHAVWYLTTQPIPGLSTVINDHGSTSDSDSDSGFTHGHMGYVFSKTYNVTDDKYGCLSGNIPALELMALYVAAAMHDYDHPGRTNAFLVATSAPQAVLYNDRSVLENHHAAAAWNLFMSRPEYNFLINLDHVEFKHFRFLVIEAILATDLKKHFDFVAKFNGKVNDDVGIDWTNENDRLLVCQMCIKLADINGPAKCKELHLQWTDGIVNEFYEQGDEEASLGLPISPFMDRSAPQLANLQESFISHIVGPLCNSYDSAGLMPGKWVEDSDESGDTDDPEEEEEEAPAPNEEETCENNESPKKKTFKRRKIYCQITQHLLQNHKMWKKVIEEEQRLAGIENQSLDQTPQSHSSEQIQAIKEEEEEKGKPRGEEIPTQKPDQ

SMILES: COc1cc2ncnc(N3CC[C@@H](Oc4cnc5ccccc5n4)C3)c2cc1OC [PQ-10, (R)-6,7-dimethoxy-4-{3-(quinoxalin-2-yloxy)pyrrolidin-1-yl}quinazoline]
- IC50 ([1]; substrate cAMP, read-out: Phosphodiesterase Inhibition PDE3A cAMP IC50): 470 nM
- IC50 ([1]; substrate cGMP, read-out: Phosphodiesterase Inhibition PDE3A cGMP IC50): 211 nM
- IC50 ([2]; substrate cAMP, read-out: Phosphodiesterase Inhibition PDE2A cAMP IC50): 7000 nM
- IC50 ([2]; substrate cGMP, read-out: Phosphodiesterase Inhibition PDE2A cGMP IC50): 3700 nM
- IC50 [3]: > 200000 nM
- IC50 ([4]; Phosphodiesterase Inhibition PDE10A cAMP IC50, substrate cAMP): 5.38 nM
- IC50 ([4]; Phosphodiesterase Inhibition PDE10A cGMP IC50, substrate cGMP): 3.88 nM
- IC50 ([5]; 72 hours of treatment, FIG. 11, read-out: IC50, growth of HT29 colon tumor cells): 130 nM
- IC50 ([5]; PDE10 Inhibitors table, read-out: Growth Inhibition IC50, HT-29): 197 nM
- IC50 ([6]; substrate cAMP, read-out: Phosphodiesterase Inhibition PDE11A cAMP IC50): 30100 nM
- IC50 ([6]; substrate cGMP, read-out: Phosphodiesterase Inhibition PDE11A cGMP IC50): 13200 nM
- IC50 ([7]; 72 hours of treatment, FIG. 11, read-out: IC50, growth of HCT116 colon tumor cells): 290 nM
- IC50 ([7]; PDE10 Inhibitors table, read-out: Growth Inhibition IC50, HCT-116): 201 nM
- IC50 [8]: 273 nM
- IC50 ([9]; 72 hours of treatment, FIG. 11C, read-out: IC50, growth of SW-480 colon tumor cells): 220 nM
- IC50 ([9]; PDE10 Inhibitors table, read-out: Growth Inhibition IC50, SW-480): 199 nM
- IC50 ([10]; 72 hours of treatment, FIG. 11, read-out: IC50, growth of normal colonocytes (NCM460)): 8400 nM
- IC50 ([10]; PDE10 Inhibitors table, read-out: Growth Inhibition IC50, NCM-460): > 5000 nM
- normal colonocytes (NCM460) less sensitive than colon tumor cell lines ([10]; NCM460 vs HCT116, SW-480 and HT29): approximately 40 times
- IC50 ([11]; substrate cAMP, read-out: Phosphodiesterase Inhibition PDE1A cAMP IC50): 29200 nM
- IC50 ([11]; substrate cGMP, read-out: Phosphodiesterase Inhibition PDE1A cGMP IC50): 8800 nM
- IC50 [12]: 17800 nM
- IC50 [13]: 1800 nM
